Reference: US10533029B1, “Anticancer trans-diaminoplatinum(II) complexes of selenones” (KING FAHD UNIVERSITY OF PETROLEUM AND MINERALS, priority 2018, dated 2020)

What was measured:
[1] = test system: human cervical cancer HeLa cells; test: MTT in vitro cytotoxicity, HeLa; type: cell-based; details: for cytotoxicity compared to cisplatin: HeLa cells; for IC50: HeLa, 72 h incubation, read-out: IC50 values against HeLa
Description: (§1) Solutions of Pt(II) complexes of selenone 1-7 and cisplatin at concentrations of 1.0 μM, 5.0 μM, 10.0 μM, 25.0 μM, and 50.0 μM were prepared in Dulbecco modified eagle medium (DMEM). The human cervical cancer cell line HeLa and human breast cancer cell line MDA-231 were seeded and maintained in quadruplicate in a 96-well tissue culture plate at 5×10^4 cells per well in 200 μL of the same medium. The cancer cells were incubated for 24 hours before treatment. All compounds were dissolved in 50% DMSO. Therefore DMSO was used as a negative control. The final DMSO concentration, in each well, was less than 0.1%. The cancer cells were treated with platinum complexes of compounds 1-7 and cisplatin, and the resulting cultures were incubated for 72 h. The medium of wells was discarded and 100 μL DMEM containing (5 mg/mL) MTT (3-(4,5-dimethylthiazol-2-yl)-2,5-diphenyltetrazolium bromide) was added to each well and the cultures incubated in a CO2 incubator at 37° C. in the dark for 4 hrs. After incubation, a purple colored formazan (artificial chromogenic dye, a product of the reduction of water […] tetrazolium salts e.g., MTT by dehydrogenases and reductases) in the cells is produced and appeared as dark crystals in the bottom of the wells. The medium of culture was discarded from each well carefully to avoid disruption of the monolayer. Isopropanol (100 μL) was added in each well. The solution was thoroughly mixed in the wells to dissolve the formazan crystals which results in a purple solution. The absorbance of the 96-well plate was measured at 570 nm with Mithras 2LB943 multimode microplate reader against reagent blank.
(§2) In vitro cytotoxicity of the platinum complexes of compounds 1-7 and cisplatin it DMSO were evaluated by the MTT assay against two human cancer cells namely, human cervical cancer HeLa cells and human breast cancer MDA-231 cells. The results of cytotoxicity are expressed, in terms of IC50 and listed m Table 7. The survival of the cells as a function of concentration of the platinum complexes of compounds 1-7 are graphically presented in FIGS. 4A and 4B. […] Recently, the anticancer properties of some other platinum(II) complexes of heterocyclic selenones have been reported [Altoum et al J. Coord. Chem. 70 (2017) 1020-1031; and. Altoum et al. Polyhedron, 128, 2-8 (2017), 42].

[2] = test system: human breast cancer MDA-231 cells; test: MTT in vitro cytotoxicity, MDA-231; type: cell-based; details: for cytotoxicity compared to cisplatin: MDA-231 (MDA-321 [sic]), MTT; for IC50: MDA-231, MTT, 72 h incubation, read-out: IC50 values against MDA-231
Description: as §1, §2

[3] = test system: MCF7 cell line; test: MTT in vitro cytotoxicity, cell line MCF7; type: cell-based, human
[4] = test system: MCF7 cells; details: read-out: IC50, in vitro cytotoxicity against MCF7 cells, Mustafa (2015) and (2014); cited from earlier work

Compound | cytotoxicity compared to cisplatin [1] | IC50 [1] | cytotoxicity compared to cisplatin [2] | IC50 [2] | cytotoxicity compared to cisplatin [3] | IC50 [4]
N.N.NC(N)=[Se].NC(N)=[Se].O=[N+]([O-])[O-].O=[N+]([O-])[O-].[Pt+2] [Complex 1, [Pt(NH3)2(Seu)2](NO3)2] | enhanced cytotoxicity | 3.1 µM | enhanced cytotoxicity | 4.3 µM | – | –
CNC(=[Se])NC.CNC(=[Se])NC.N.N.O=[N+]([O-])[O-].O=[N+]([O-])[O-].[Pt+2] [Complex 2, [Pt(NH3)2(Me2Seu)2](NO3)2] | more cytotoxic than cisplatin | 2.3 µM | – | 7.4 µM | less active | –
N.N.O=[N+]([O-])[O-].O=[N+]([O-])[O-].[Pt+2].[Se]=C1NCCN1.[Se]=C1NCCN1 [Complex 3, [Pt(NH3)2(ImSe)2](NO3)2] | comparable cytotoxicity | 3.7 µM | – | 9.5 µM | less active | –
CCN1CCNC1=[Se].CCN1CCNC1=[Se].N.N.O=[N+]([O-])[O-].O=[N+]([O-])[O-].[Pt+2] [Complex 4, [Pt(NH3)2(EtImSe)2](NO3)2] | enhanced cytotoxicity | 2.1 µM | enhanced cytotoxicity | 4.4 µM | – | –
CCCN1CCNC1=[Se].CCCN1CCNC1=[Se].N.N.O=[N+]([O-])[O-].O=[N+]([O-])[O-].[Pt+2] [Complex 5, trans-[Pt(NH3)2(PrImSe)2](NO3)2] | – | 6.9 µM | – | 4.7 µM | greater cytotoxicity than cisplatin | –
CC(C)N1CCNC1=[Se].CC(C)N1CCNC1=[Se].N.N.O=[N+]([O-])[O-].O=[N+]([O-])[O-].[Pt+2] [Complex 6] | enhanced cytotoxicity | 3.1 µM | enhanced cytotoxicity | 5.7 µM | – | –
N.N.O=[N+]([O-])[O-].O=[N+]([O-])[O-].[Pt+2].[Se]=C1NCCCCN1.[Se]=C1NCCCCN1 [Complex 7, [Pt(NH3)2(DiapSe)2](NO3)2] | – | 5.4 µM | – | 5.3 µM | – | –
S=C1NCCCN1.S=C1NCCCN1.S=C1NCCCN1.S=C1NCCCN1.[Cl-].[Cl-].[Pt+2] [[Pt(Diaz)4]Cl2] | – | – | – | – | – | 19.1 µM
CCN1CCNC1=S.CCN1CCNC1=S.CCN1CCNC1=S.CCN1CCNC1=S.[Cl-].[Cl-].[Pt+2] [[Pt(EtImt)4]Cl2] | – | – | – | – | – | 11 µM
cis-(Pt(NH3)2Cl2) [Cisplatin, reference compound] | – | 3.6 µM | – | 6.3 µM | – | –
